Columns and labels:
[1] = Metabolism in rat liver microsomes; format: in vitro ADME; settings: pH 7.4, 1 μM compound, 1 mg/mL microsomes, NADPH, 37° C., read-out: Rat liver microsome T1/2
Method: (§1) Liver microsomes from human, rat dog and monkey were thawed and diluted to a final concentration of 1 mg/mL in 100 mM potassium phosphate buffer (pH 7.4). Test compounds and controls were prepared at 100× final concentration of 1 μM in 1:1 acetonitrile:water (v/v) and aliquoted into microsomal mixture. The mixture was preincubated at 37° C. in a shaking water bath for 10 minutes. The incubations were performed in duplicate. Three controls were included in the incubations; warfarin, phenacetin, and verapamil. After the preincubation, the reaction was initiated with NADPH at a final concentration of 1 mM. At 0, 5, 15, 30, 45 and 60 minutes, 25 μL of sample was removed and quenched with 300 μL of acetonitrile containing internal standard (Telmisartan). The samples were vortexed for 5 minutes at 1200 rpm and then centrifuged at 4000 rpm for 10 min. A 100 μL aliquot of supernatant was diluted three-fold with water and injected on an Exion LC 4500 Triple Quad LC-MS/MS system. Results were reported as a percentage of parent remaining and was calculated from peak area ratios of test compound remaining after at each time point and compared to time zero incubation.

[2] = Metabolism in dog liver microsomes; format: in vitro ADME
Method: as §1

[3] = tested on: human hepatocytes; experiment: Metabolism in human hepatocytes; format: in vitro ADME; settings: 0.5 μM
Method: Cryopreserved hepatocytes in suspension from human, monkey, dog, rat and mouse were thawed and diluted in pre-warmed William's Medium E (pH 7.4). Aliquots of the hepatocyte suspension were added to test compound working solutions prepared in pre-warmed William's Medium E (pH 7.4) to achieve final concentrations of 0.5 μM in 0.5×10^6 cells per milliliter and ≤0.25% DMSO. These samples were incubated at 37° C. with 5% carbon dioxide and shaking. The incubations were performed in singlet. At time points 0, 10, 30, 60, 120 and 240 minutes, a 50 μL aliquot of the incubation mixtures was removed and added to a 100 μL solution of acetonitrile containing internal standard and the mixture was then centrifuged at 4° C. and 3500 rpm for 15 minutes. Following completion of the experiment, samples were analyzed by LC-MS/MS. Metabolic stability results were reported as a percentage of parent test compound remaining. This percentage is calculated by dividing the LCMS peak area of test compound following incubation (tx) by the LCMS peak area of test compound at time-zero (t0) just prior to incubation.
The elimination rate constant (k, min^−1) is calculated using nonlinear regression fitting with the following equation: […]
where: C0 is the initial concentration represented as the peak area ratio (test compound peak area/internal standard peak area); Ct is the concentration at t represented as the area ratio (test compound peak area/internal standard peak area); e is the base of the natural logarithm t is the time (min); k is the elimination rate constant (min^−1). The half-life (t1/2, min) is calculated using the following equation: […]
where: k is the elimination rate constant (min^−1). The in vitro intrinsic clearance (CLint, mL/min/million cells) is calculated using the following equation: […]
where: t1/2 is the half-life; n is the number of cells per mL.

[4] = Pharmacokinetic parameters in vivo, mouse; set-up: species or system male CD1 mice; settings: male, CD1, plasma
Method: (§2) PK was investigated in male CD1 mice, Wistar Han Rats, Cynomolgus monkeys, and Beagle Dogs. Two groups of animals (N=3 per group) received test compound either as an intravenous (IV) dose (1 mg/kg) or by oral gavage (5 mg/kg solution and suspension). Drug was formulated in 90% PEG 400, 10% ethanol for IV administration and in 90% PEG400, 5% ethanol for PO administration. Blood samples were collected at 0.167, 0.25, 0.5, 0.75, 1, 2, 3, 5, 7, 24, 48, 72 and 96 h post dose for IV; 0.25, 0.5, 0.75, 1, 2, 3, 5, 7, 24, 48, 72 and 96 h post dose for oral. Blood samples were collected into K3EDTA tubes and centrifuged at 1500 to 2000×g to obtain plasma. Plasma samples were stored at −20° C. until analysis by LC-MS/MS. All […] samples were injected on an Exion LC 4500 Triple Quad™ LC-MS/MS system. The analytical column used was a Phenomenex C18 (C18, 4.6 mm×50 mm, 5 μm) maintained at room temperature. Mobile Phase A consisted of 0.1% (v/v) formic acid in MilliQ water. Mobile Phase B consisted of 100% methanol. The flow rate was 1 mL/min. […] All LC-MS/MS analysis parameters are captured electronically in the raw data files. The PK parameters were obtained by non-compartmental analysis of plasma concentration vs time data (Phoenix WinNonlin v8). The peak concentration (Cmax) and time for Cmax (Tmax) were recorded directly from experimental observations. The area under the curve from time zero to the last sampling time [AUC0-T] and the area under the curve from time zero to infinity [AUCINF] were calculated using a combination of linear and log trapezoidal summations. The total plasma clearance (CLTp), steady-state volume of distribution (Vss), apparent elimination half-life (T-HALF), and mean residence time (MRT) were estimated after IV administration. Estimations of AUC and T-HALF were made using a minimum of three timepoints with quantifiable concentrations. The absolute oral bioavailability (F) was estimated as the ratio of dose-normalized AUC values following oral and IV doses.

[5] = Pharmacokinetic parameters in vivo, monkey; set-up: species or system Cynomolgus monkeys
Method: as §2

[6] = Pharmacokinetic parameters in vivo, dog; set-up: species or system Beagle Dogs
Method: as §2

[7] = cynomolgus monkey, plasma, Monkey, IV 1 mg/kg
[8] = Beagle, plasma, Dog, IV 1 mg/kg

Cn1nc(NS(C)(=O)=O)c2c(Cl)ccc(-n3c([C@H](Cc4cc(F)cc(F)c4)NC(=O)Cn4nc(C(F)F)c5c4C(F)(F)[C@@H]4C[C@H]54)nc4nc(OCCC(C)(F)F)ccc4c3=O)c21 (atropisomer, axis not shown; (P)) [Example 1, N—((S)-1-((3P)-3-(4-chloro-1-methyl-3-(methylsulfonamido)-1H-indazol-7-yl)-7-(3,3-difluorobutoxy)-4-oxo-3,4-dihydropyrido[2,3-d]pyrimidin-2-yl)-2-(3,5-difluorophenyl)ethyl)-2-((3bS,4aR)-3-(difluoromethyl)-5,5-difluoro-3b,4,4a,5-tetrahydro-1H-cyclopropa[3,4]cyclopenta[1,2-c]pyrazol-1-yl)acetamide]
half-life at 1 μM [1]: > 2 h
stability in dog liver microsomes relative to Example 60.2 ([2]; Example 1 versus Example 60.2): at least seven times more stable
half-life at 1 μM ([2]; dog, liver microsomes, pH 7.4, 1 μM compound, 1 mg/mL microsomes, NADPH, 37° C., read-out: Dog liver microsome T1/2): > 2 h
intrinsic clearance in human hepatocytes [3]: less than 0.2 mL/min/g liver
half-life in human hepatocytes ([3]; 0.5×10^6 cells per milliliter): could not be measured
parent remaining after incubation in human hepatocytes ([3]; 240 minute incubation): no metabolism was measurable
clearance ([4]; IV 1 mg/kg): 1.77 mL/min/kg
half-life ([4]; IV 1 mg/kg): 7.8 h
Vd ([4]; IV 1 mg/kg, read-out: Vss): 1.14 L/kg
bioavailability ([4]; oral gavage 5 mg/kg vs IV 1 mg/kg): 76.7%
clearance [5, 7]: 8.8 mL/min/kg
half-life [5, 7]: 4.2 h
Vd ([5]; cynomolgus monkey, plasma, Monkey, IV 1 mg/kg, read-out: Vss): 1.73 L/kg
bioavailability ([5]; cynomolgus monkey, plasma, Monkey, oral gavage 5 mg/kg solution vs IV 1 mg/kg): 7.92%
half-life in circulation higher than Example 60.2 ([5]; monkey): three-fold
clearance improved relative to Example 60.2 ([5]; monkey, IV): 2.5 fold
clearance [6, 8]: 1.16 mL/min/kg
half-life [6, 8]: 12.4 h
Vd ([6]; Beagle, plasma, Dog, IV 1 mg/kg, read-out: Vss): 0.88 L/kg
bioavailability ([6]; Beagle, plasma, Dog, oral gavage 5 mg/kg solution vs IV 1 mg/kg): 34.6%
half-life in circulation higher than Example 60.2 ([6]; dog): five-fold
clearance improved relative to Example 60.2 ([6]; dog, IV): seven-fold
